As a reminder, the EC50 is the concentration at which the effect is half-maximal. A high value points to a need for much substance.

The target in this test is T1, CD73 activity in MDA-MB-231-GFP cells (Homo sapiens, UniProt P21589).
T1 construct: endogenous in cells; host or cells: MDA-MB-231-GFP cells
T1 sequence (P21589 27-549): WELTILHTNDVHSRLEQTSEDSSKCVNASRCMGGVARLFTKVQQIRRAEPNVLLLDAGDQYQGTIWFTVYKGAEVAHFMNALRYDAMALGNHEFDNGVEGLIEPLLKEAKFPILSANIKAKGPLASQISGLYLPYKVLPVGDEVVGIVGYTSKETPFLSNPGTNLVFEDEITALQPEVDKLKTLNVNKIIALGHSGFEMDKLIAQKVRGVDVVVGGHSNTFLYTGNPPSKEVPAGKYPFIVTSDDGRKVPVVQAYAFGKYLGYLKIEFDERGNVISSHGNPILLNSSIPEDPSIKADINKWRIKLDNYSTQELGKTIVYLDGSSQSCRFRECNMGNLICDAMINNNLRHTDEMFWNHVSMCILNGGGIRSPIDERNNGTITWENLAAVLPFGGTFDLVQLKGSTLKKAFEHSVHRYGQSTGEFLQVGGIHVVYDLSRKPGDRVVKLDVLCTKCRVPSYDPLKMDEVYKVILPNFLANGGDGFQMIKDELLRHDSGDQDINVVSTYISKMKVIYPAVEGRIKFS
The test is described as follows: MDA-MB-231 Cell Based CD73 Activity Assay (DMEM). Particulars: 3000 cells per well, DMEM medium with 10% human plasma, overnight compound treatment, AMP 200 uM. As to the method:
MDA-MB-231 Cell Based CD73 Activity Assay (DMEM) MDA-MB-231-GFP cells were seeded in 384-well plates (Greiner 781946) at a density of 3000 cells per well in 50 μL of DMEM medium with 10% HP (human plasma). Cells were plated into assay plate with compounds pre-spotted, for an overnight compound treatment. 50 uL of 400 uM AMP (final concentration will be 200 uM) was added using Bio-tek dispenser. Plates were incubated for 100 mins. […] The samples were analyzed using Rapid fire.
Turning to `O=c1[nH]cc(-c2cc([C@H]3C[C@@H]3c3ccc(C(F)(F)F)cc3)c3ncc(F)n3n2)c(=O)[nH]1` (racemic) [Example 183, 5-(3-fluoro-8-((1S,2S)-2-(4-(trifluoromethyl)phenyl)cyclopropyl)imidazo[1,2-b]pyridazin-6-yl)pyrimidine-2,4(1H,3H)-dione], it took 23.9 nM to reach a half-maximal effect (EC50).

In turn, `Cn1cc([C@H]2C[C@@H]2c2cc(-c3c[nH]c(=O)[nH]c3=O)nn3ccnc23)ccc1=O` (racemic) [Example 184, 5-(8-((1S,2S)-2-(1-methyl-6-oxo-1,6-dihydropyridin-3-yl)cyclopropyl)imidazo[1,2-b]pyridazin-6-yl)pyrimidine-2,4(1H,3H)-dione] displayed an EC50 of 9.45 nM.

Take `CC1(C)C(=O)N(CC(F)(F)F)c2cc([C@H]3C[C@@H]3c3cc(-c4c[nH]c(=O)[nH]c4=O)nn4c(Cl)cnc34)ccc21` (racemic) [Example 212, 5-[3-chloro-8-[(1S,2S)-2-[3,3-dimethyl-2-oxo-1-(2,2,2-trifluoroethyl)indolin-6-yl]cyclopropyl]imidazo[1,2-b]pyridazin-6-yl]-1H-pyrimidine-2,4-dione]: the EC50 came to 0.72 nM. For `O=c1[nH]cc(-c2cc([C@H]3C[C@@H]3c3ccc4c(F)nn(CC(F)(F)F)c4c3)c3ncc(Cl)n3n2)c(=O)[nH]1` (racemic) [Example 213, 5-[3-chloro-8-[(1S,2S)-2-[3-fluoro-1-(2,2,2-trifluoroethyl)indazol-6-yl]cyclopropyl]imidazo[1,2-b]pyridazin-6-yl]-1H-pyrimidine-2,4-dione], it took 0.45 nM to reach a half-maximal effect (EC50). Next, `O=c1[nH]cc(-c2cc([C@H]3C[C@@H]3c3ccc4ncsc4c3)c3nccn3n2)c(=O)[nH]1` (racemic) [Example 276, 5-(8-((1S,2S)-2-(benzo[d]thiazol-6-yl)cyclopropyl)imidazo[1,2-b]pyridazin-6-yl)pyrimidine-2,4(1H,3H)-dione]: 2.78 nM; `O=c1[nH]cc(-c2cc([C@H]3C[C@@H]3c3ccc4c(c3)OC(F)(F)O4)c3ncc(F)n3n2)c(=O)[nH]1` (racemic) [Example 278, 5-(8-((2S,2S)-2-(2,2-difluorobenzo[d][1,3]dioxol-5-yl)cyclopropyl)-3-fluoroimidazo[1,2-b]pyridazin-6-yl)pyrimidine-2,4(1H,3H)-dione]: 38.9 nM. In the case of `O=c1[nH]cc(-c2cc([C@H]3C[C@@H]3c3ccc(OC(F)(F)F)cc3F)c3nccn3n2)c(=O)[nH]1` (racemic) [Example 280, 5-(8-((1S,2S)-2-(2-fluoro-4-(trifluoromethoxy)phenyl)cyclopropyl)imidazo[1,2-b]pyridazin-6-yl)pyrimidine-2,4(1H,3H)-dione] it was 77.8 nM; in that of `COC(=O)c1ccc([C@H]2C[C@@H]2c2cc(-c3c[nH]c(=O)[nH]c3=O)nn3ccnc23)cc1` (racemic) [Example 281, methyl 4-((2S,2S)-2-(6-(2,4-dioxo-1,2,3,4-tetrahydropyrimidin-5-yl)imidazo[1,2-b]pyridazin-8-yl)cyclopropyl)benzoate], 8.23 nM. In the case of `COC(=O)c1cccc([C@H]2C[C@@H]2c2cc(-c3c[nH]c(=O)[nH]c3=O)nn3ccnc23)c1` (racemic) [Example 282, methyl 3-((2S,2S)-2-(6-(2,4-dioxo-1,2,3,4-tetrahydropyrimidin-5-yl)imidazo[1,2-b]pyridazin-8-yl)cyclopropyl)benzoate] it was 11.7 nM; in that of `NC(=O)c1cccc([C@H]2C[C@@H]2c2cc(-c3c[nH]c(=O)[nH]c3=O)nn3ccnc23)c1` (racemic) [Example 284, 3-((1S,2S)-2-(6-(2,4-dioxo-1,2,3,4-tetrahydropyrimidin-5-yl)imidazo[1,2-b]pyridazin-8-yl)cyclopropyl)benzamide], 3.49 nM. `CNC(=O)c1ccc([C@H]2C[C@@H]2c2cc(-c3c[nH]c(=O)[nH]c3=O)nn3ccnc23)cc1` (racemic) [Example 285, 4-((2S,2S)-2-(6-(2,4-dioxo-1,2,3,4-tetrahydropyrimidin-5-yl)imidazo[1,2-b]pyridazin-8-yl)cyclopropyl)-N-methylbenzamide] showed a concentration for a half-maximal effect (EC50) of 2.99 nM. In the case of `CNC(=O)c1cccc([C@H]2C[C@@H]2c2cc(-c3c[nH]c(=O)[nH]c3=O)nn3ccnc23)c1` (racemic) [Example 286, 3-((2S,2S)-2-(6-(2,4-dioxo-1,2,3,4-tetrahydropyrimidin-5-yl)imidazo[1,2-b]pyridazin-8-yl)cyclopropyl)-N-methylbenzamide] it was 2.42 nM; in that of `CN(C)C(=O)c1cccc([C@H]2C[C@@H]2c2cc(-c3c[nH]c(=O)[nH]c3=O)nn3ccnc23)c1` (racemic) [Example 287, 3-((2S,2S)-2-(6-(2,4-dioxo-1,2,3,4-tetrahydropyrimidin-5-yl)imidazo[1,2-b]pyridazin-8-yl)cyclopropyl)-N,N-dimethylbenzamide], 12.5 nM; in that of `CN(C)C(=O)c1ccc([C@H]2C[C@@H]2c2cc(-c3c[nH]c(=O)[nH]c3=O)nn3ccnc23)cc1` (racemic) [Example 288, 4-((2S,2S)-2-(6-(2,4-dioxo-1,2,3,4-tetrahydropyrimidin-5-yl)imidazo[1,2-b]pyridazin-8-yl)cyclopropyl)-N,N-dimethylbenzamide], 35.7 nM.

Compound `O=C(c1ccc([C@H]2C[C@@H]2c2cc(-c3c[nH]c(=O)[nH]c3=O)nn3ccnc23)cc1)N1CCC1` (racemic) [Example 289, 5-(8-((2S,2S)-2-(4-(azetidine-1-carbonyl)phenyl)cyclopropyl)imidazo[1,2-b]pyridazin-6-yl)pyrimidine-2,4(1H,3H)-dione] returned a concentration for a half-maximal effect (EC50) of 7.24 nM. In the case of `CC1CN(C(=O)c2ccc([C@H]3C[C@@H]3c3cc(-c4c[nH]c(=O)[nH]c4=O)nn4ccnc34)cc2)C1` (racemic) [Example 290, 5-(8-((2S,2S)-2-(4-(3-methylazetidine-1-carbonyl)phenyl)cyclopropyl)imidazo[1,2-b]pyridazin-6-yl)pyrimidine-2,4(1H,3H)-dione], the half-maximal effective concentration (EC50) turned out to be 9.64 nM. In the case of `O=C(c1ccc([C@H]2C[C@@H]2c2cc(-c3c[nH]c(=O)[nH]c3=O)nn3ccnc23)cc1)N1CC(C(F)(F)F)C1` (racemic) [Example 291, 5-(8-((1S,2S)-2-(4-(3-(trifluoromethyl)azetidine-1-carbonyl)phenyl)cyclopropyl)imidazo[1,2-b]pyridazin-6-yl)pyrimidine-2,4(1H,3H)-dione] it was 18.6 nM; in that of `O=C(c1ccc([C@H]2C[C@@H]2c2cc(-c3c[nH]c(=O)[nH]c3=O)nn3ccnc23)cc1)N1CC(F)(F)C1` (racemic) [Example 292, 5-(8-((1S,2S)-2-(4-(3,3-difluoroazetidine-1-carbonyl)phenyl)cyclopropyl)imidazo[1,2-b]pyridazin-6-yl)pyrimidine-2,4(1H,3H)-dione], 5.72 nM.

The compound `CC1(C)CN(C(=O)c2ccc([C@H]3C[C@@H]3c3cc(-c4c[nH]c(=O)[nH]c4=O)nn4ccnc34)cc2)C1` (racemic) [Example 293, 5-(8-((2S,2S)-2-(4-(3,3-dimethylazetidine-1-carbonyl)phenyl)cyclopropyl)imidazo[1,2-b]pyridazin-6-yl)pyrimidine-2,4(1H,3H)-dione] showed an EC50 of 8.8 nM. Next, `O=C(c1cccc([C@H]2C[C@@H]2c2cc(-c3c[nH]c(=O)[nH]c3=O)nn3ccnc23)c1)N1CCC1` (racemic) [Example 294, 5-(8-((2S,2S)-2-(3-(azetidine-1-carbonyl)phenyl)cyclopropyl)imidazo[1,2-b]pyridazin-6-yl)pyrimidine-2,4(1H,3H)-dione]: 1.32 nM.
